Tests used:
[1] = Inhibition of alpha-fucosidase
[2] = Inhibition of alpha-mannosidase
[3] = Inhibition of alpha-galactosidase
[4] = Inhibition of beta-glucosidase
[5] = Inhibition of alpha-glucosidase
[6] = Inhibition of beta-galactosidase
[7] = Inhibition of beta-mannosidase

| SMILES | Ki ([1]; read-out: Ki) | IC50 [3] | IC50 [4] | Ki [5] | IC50 [2] | also measured |
| --- | --- | --- | --- | --- | --- | --- |
| C[C@@H]1N[C@H](CO)[C@H](O)[C@@H]1O | 0.0049 µM | – | – | – | – | – |
| C[C@@H]1N[C@@H](CCO)[C@H](O)[C@@H]1O | 0.008 µM | > 1000 µM | > 1000 µM | – | > 1000 µM | IC50 [6]: > 1000 µM; IC50 [5]: > 100 µM; IC50 [7]: > 1000 µM |
| OC[C@H]1NC[C@@H](O)[C@H]1O | – | 0.2 µM | 350 µM | Not Active | 14 µM | Ki [1]: Not Active; IC50 [6]: 140 µM |
| C[C@@H]1NC[C@H](O)[C@@H]1O | 0.05 µM | – | – | – | – | – |
| C[C@H]1N[C@@H](CO)[C@@H](O)[C@H]1O (racemic) | 0.015 µM | – | > 1 µM | – | > 1000 µM | Ki [3]: 3 µM; Ki [6]: 53 µM; IC50 [5]: > 100 µM; IC50 [7]: > 1000 µM |

Further compounds by falling Ki ([1]; read-out: Ki), results first:

| Ki ([1]; read-out: Ki) | IC50 [3] | IC50 [4] | Ki [5] | IC50 [2] | SMILES | also measured |
| --- | --- | --- | --- | --- | --- | --- |
| 1000 µM | 2000 µM | 100 µM | Not Active | – | C[C@H]1N[C@H](CO)[C@@H](O)[C@H]1O | Ki [2]: Not Active |
| 9 µM | – | 1200 µM | Not Active | – | C[C@H]1N[C@H](CO)[C@H](O)[C@@H]1O | Ki ([2]; read-out: Ki): 53 µM; Ki [3]: 5 µM |
| 0.08 µM | – | – | – | – | C[C@@H]1N[C@@H](CO)[C@H](O)[C@@H]1O | – |

From ChEMBL document CHEMBL1287753, “Synthesis of all-cis 2,5-imino-2,5-dideoxy-fucitol and its evaluation as a potent fucosidase and galactosidase inhibitor” (Bioorg Med Chem Lett, 2010)
